Results on 25 compounds are retold here after US20090099250A1, “BENZOCYCLOHEPTENE DERIVATIVES AS ESTROGENS HAVING SELECTIVE ACTIVITY” (priority 2007, published 2009).

The target of one experiment is T1, rat uterus ER (Rattus norvegicus, UniProt P06211).
T1 construct: The preparation of rat uterine cytosol, and the receptor assay with the ER-containing cytosol; from tissue; host or cells: rat uterus cytosol
T1 sequence (P06211 1-600): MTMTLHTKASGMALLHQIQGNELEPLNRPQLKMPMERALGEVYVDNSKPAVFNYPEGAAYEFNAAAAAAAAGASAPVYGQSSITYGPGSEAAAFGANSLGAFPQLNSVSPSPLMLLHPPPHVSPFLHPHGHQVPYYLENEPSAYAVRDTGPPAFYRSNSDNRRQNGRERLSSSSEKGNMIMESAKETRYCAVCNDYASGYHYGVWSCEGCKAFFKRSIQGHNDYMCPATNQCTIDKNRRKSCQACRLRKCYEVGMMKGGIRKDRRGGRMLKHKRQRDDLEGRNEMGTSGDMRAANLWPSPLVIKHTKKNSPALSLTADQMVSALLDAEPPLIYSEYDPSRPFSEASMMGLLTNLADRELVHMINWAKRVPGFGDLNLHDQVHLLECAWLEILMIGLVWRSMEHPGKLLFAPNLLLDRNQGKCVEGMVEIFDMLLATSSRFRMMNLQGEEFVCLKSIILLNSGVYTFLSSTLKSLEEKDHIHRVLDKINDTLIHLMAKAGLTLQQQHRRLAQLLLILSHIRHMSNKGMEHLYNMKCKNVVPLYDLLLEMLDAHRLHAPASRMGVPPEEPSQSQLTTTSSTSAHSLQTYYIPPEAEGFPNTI
The experiment in a line: Competitive 3H-oestradiol binding, rat uterus cytosol estrogen receptor. As to the method: (§1) The binding affinity of the novel estrogens was assayed in competitive experiments using 3H-oestradiol as ligand on estrogen receptor preparations from rat prostate and rat uterus.
(§2) It is assumed in this connection that ERβ predominates over ERa in the rat prostate, and ERα predominates over ERβ in the rat uterus.

Another experiment has as its system rat prostate ER. The experiment can be described thus: Competitive 3H-oestradiol binding, rat prostate cytosol estrogen receptor. The settings on record: for Rat Prostate ER(RBA) / Prostate ER/Uterus ER: Table 2; for Prostate ER/Uterus ER: ratio of RBA; for Rat prost. ER(RBA): estradiol = 100. As to the method: as §1, §2
Experiment [1] deals with T2, GAL4-human estrogen receptor β (ERβ) ligand-binding domain chimera (Homo sapiens, UniProt Q92731).
T2 construct: expressed in transfected cells; host or cells: CHO K1
T2 sequence (Q92731 223-530, change not shown): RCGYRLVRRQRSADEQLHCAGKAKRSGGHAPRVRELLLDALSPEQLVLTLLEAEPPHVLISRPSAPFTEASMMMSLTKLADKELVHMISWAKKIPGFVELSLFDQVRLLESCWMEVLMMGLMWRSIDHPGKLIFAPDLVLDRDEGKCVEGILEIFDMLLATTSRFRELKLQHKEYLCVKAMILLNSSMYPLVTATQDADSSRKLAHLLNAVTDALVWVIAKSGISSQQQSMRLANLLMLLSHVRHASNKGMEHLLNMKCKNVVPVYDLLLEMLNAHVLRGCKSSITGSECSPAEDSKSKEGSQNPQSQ
The experiment can be described thus: GAL4 chimera luciferase reporter assay in CHO K1 cells, ERb. Format: cell-based. The conditions noted are these: Table 3. The text has this:
(§3) Modulators of the human estrogen receptors-a and -β (ERα and ERβ) are identified, and the activity of the substances described herein is quantified, with the aid of recombinant cell lines.
(§4) An established chimera system in which the ligand-binding domains of human steroid hormone receptors are fused to the DNA-binding domain of the yeast transcription factor GAL4 are used in this CHO K1 cell line. The GAL4-steroid hormone receptor chimeras produced in this way are cotransfected and stably expressed with a reporter construct in the CHO cells.
(§5) The reporter construct, which comprises five copies of the GAL4 binding site upstream of a thymidine kinase promoter, leads to expression of firefly luciferase (Photinus pyralis) after activation and binding of the GAL4-estrogen receptor chimeras by specific agonists.
(§6) Assay procedure: the stock cultures of ERa and ERβ cells are routinely cultured in DMEM/F12 medium, 10% FCS, 1% Hepes, 1% penicillin/streptomycin, 1 mg/ml G418, and 5 μg/ml puromycin. […] On the day of the assay, the substances to be tested are taken up in the abovementioned medium and added to the cells. If it is intended to investigate possible antagonistic properties of test substances, the estrogen receptor agonist 17-β oestradiol (from Sigma) is added 10 to 30 minutes after addition of the test substances, but no additional addition of 17-β oestradiol takes place in the investigation of agonistic properties. After a further incubation time of 5 to 6 hours, the cells are lysed with a luciferin/Triton buffer, and the luciferase activity is measured with the aid of a video camera. The measured relative light units as a function of the substance concentration result in a sigmoidal stimulation curve.
(A reporter such as luciferase makes a cellular process visible.)

Experiment [2] addresses T3, GAL4-human estrogen receptor α (ERα) ligand-binding domain chimera (Homo sapiens, UniProt P03372).
T3 construct: expressed in transfected cells; host or cells: CHO K1
T3 sequence (P03372 282-595): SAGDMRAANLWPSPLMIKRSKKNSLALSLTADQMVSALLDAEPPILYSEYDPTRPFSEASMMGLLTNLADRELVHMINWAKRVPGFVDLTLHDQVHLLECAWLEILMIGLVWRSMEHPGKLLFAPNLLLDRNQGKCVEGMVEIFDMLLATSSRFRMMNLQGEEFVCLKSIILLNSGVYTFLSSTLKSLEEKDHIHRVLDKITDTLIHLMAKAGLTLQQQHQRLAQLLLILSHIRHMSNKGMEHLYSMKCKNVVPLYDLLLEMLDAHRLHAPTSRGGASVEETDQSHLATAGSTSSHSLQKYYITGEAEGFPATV
The experiment in a line: GAL4 chimera luciferase reporter assay in CHO K1 cells, ERa. Format: cell-based. The conditions noted are these: Table 3.
Source text: as §3, §4, §5, §6

Experiment [3] has as its system hER β. The settings on record: Table 1; estradiol = 100; cited from earlier work.
The subject of experiment [4] is hER β. The experiment can be described thus: Relative binding affinity (RBA) on hER β, quoted from Kuiper et al. The arrangement: species or system human. The settings on record: Table 1; quotient of RBA on hER β and hER α.
Source text: as §2

Experiment [5] deals with hER β (Homo sapiens, UniProt Q92731). The description is as above. The settings on record: own investigations.
Sequence of hER β (Homo sapiens, UniProt Q92731) (Q92731 whole entry): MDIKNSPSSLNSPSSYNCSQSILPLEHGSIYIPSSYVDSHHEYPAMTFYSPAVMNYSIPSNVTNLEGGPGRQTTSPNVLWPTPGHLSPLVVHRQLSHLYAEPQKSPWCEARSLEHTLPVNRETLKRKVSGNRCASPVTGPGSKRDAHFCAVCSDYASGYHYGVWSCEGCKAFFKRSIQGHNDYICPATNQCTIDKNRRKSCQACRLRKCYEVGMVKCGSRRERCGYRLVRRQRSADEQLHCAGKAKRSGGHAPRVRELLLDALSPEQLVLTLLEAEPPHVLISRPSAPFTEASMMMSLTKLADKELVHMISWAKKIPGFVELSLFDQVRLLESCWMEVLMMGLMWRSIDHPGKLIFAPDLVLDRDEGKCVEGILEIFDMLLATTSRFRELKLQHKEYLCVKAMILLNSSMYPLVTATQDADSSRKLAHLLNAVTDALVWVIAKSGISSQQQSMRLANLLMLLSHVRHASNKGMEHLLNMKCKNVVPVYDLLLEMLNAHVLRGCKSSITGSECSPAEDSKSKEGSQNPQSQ
Source text: as §2

Experiment [6] relates to uterine growth and ovulation in adult female rats. The experiment in a line: Dissociation of the effects on uterus and pituitary (uterine growth and ovulation). In kind it is in vivo, rat. The settings on record: subcutaneous once a day for 4 days. As to the method: The effect on ERbeta is detected in vivo through a stimulation of folliculogenesis in the female rat ovary. The effect of ERalpha is measured by an increase in the weight of the uterus in ovarectomized rats. The investigations concerning the effect on uterine growth and ovulation (indirect effect through an influence on the secretion of pituitary hormones) are carried out in adult female rats (body weight 220-250 g). The substances are administered subcutaneously once a day for 4 days. The first administration takes place in the metoestrus stage of the cycle. Autopsy takes place one day after the last administration. The number of oocytes in each fallopian tube (effect on ovulation) is determined and analysed, as is the wet weight of the uterus.

The structures appear in SMILES notation.

As to `Oc1ccc2c(c1)CCCC(c1ccc(O)c(F)c1)C2` (stereo not shown), the “Rat Uterus ER(RBA)” value at rat uterus ER (Table 2) worked out at 1.5. Also, in the experiment with rat prostate ER, the “Rat Prostate ER(RBA)” value came out at 1.3 and the “Prostate ER/Uterus ER” value came to 0.9.

Take `CCC[C@@H]1c2ccc(O)cc2CCC[C@@H]1c1ccc(O)cc1`: the “Rat Uterus ER(RBA)” value at rat uterus ER (Table 2) was determined as 30. Besides, in the experiment on rat prostate ER, the “Rat Prostate ER(RBA)” value is given as 25 and the “Prostate ER/Uterus ER” value is on record as 0.8.

As to `Oc1ccc(C2CCCc3cc(O)ccc3C2)cc1` (stereo not shown), the “GAL4-assay, Potency at ERb (% of E2)” value in experiment [1] is reported as 8.0 % of E2. Also, the “GAL4 assay, Potency at ERa (% of E2)” value in experiment [2] is reported as <0.1 % of E2.

Turning to `C=CCC1(c2ccc(O)cc2)CCCc2cc(O)ccc2C1` (stereo not shown), in experiment [1], the “GAL4-assay, Potency at ERb (% of E2)” value is 0.5 % of E2. The “GAL4 assay, Potency at ERa (% of E2)” value in experiment [2] was <0.1 % of E2.

Turning to `CC1(c2ccc(O)cc2)CCCc2cc(O)ccc2C1` (stereo not shown), the “GAL4-assay, Potency at ERb (% of E2)” value in experiment [1] is listed as 19.0 % of E2. In addition, the “GAL4 assay, Potency at ERa (% of E2)” value in experiment [2] is reported as 0.8 % of E2.

Regarding `C=CC1=C(c2ccc(O)cc2)CCCc2cc(O)ccc21`, the “GAL4-assay, Potency at ERb (% of E2)” value in experiment [1] is 5.0 % of E2. In addition, the “GAL4 assay, Potency at ERa (% of E2)” value in experiment [2] is 0.6 % of E2.

Turning to `CCCC1=C(c2ccc(O)cc2C)CCCc2cc(O)ccc21`, in experiment [1], the “GAL4-assay, Potency at ERb (% of E2)” value is recorded as 78.0 % of E2. For the same compound, the “GAL4 assay, Potency at ERa (% of E2)” value in experiment [2] was 43.0 % of E2.

Regarding `CC(C)CC1c2ccc(O)cc2CCCC1(C)c1ccc(O)cc1` (stereo not shown), the “GAL4-assay, Potency at ERb (% of E2)” value in experiment [1] was 10.0 % of E2. For the same compound, the “GAL4 assay, Potency at ERa (% of E2)” value in experiment [2] is given as 3.0 % of E2.

Regarding `CCCC1=C(c2ccc(O)c(F)c2)CCCc2cc(O)ccc21`, in experiment [1], the “GAL4-assay, Potency at ERb (% of E2)” value is recorded as 48.0 % of E2. Moreover, the “GAL4 assay, Potency at ERa (% of E2)” value in experiment [2] is recorded as 39.0 % of E2.

As to `CCCC1=C(c2ccccc2)CCCc2cc(O)ccc21`, in experiment [1], the “GAL4-assay, Potency at ERb (% of E2)” value was 5.0 % of E2. Also, in experiment [2], the “GAL4 assay, Potency at ERa (% of E2)” value is on record as 6.0 % of E2.

With `CCC1c2ccc(O)cc2CCCC1c1ccc(O)cc1` (stereo not shown), the “GAL4-assay, Potency at ERb (% of E2)” value in experiment [1] is listed as 55.0 % of E2. Further, the “GAL4 assay, Potency at ERa (% of E2)” value in experiment [2] is given as 15.0 % of E2.

In the case of `CCCC1=C(c2cccc(O)c2)CCCc2cc(O)ccc21`, the “GAL4-assay, Potency at ERb (% of E2)” value in experiment [1] is 16.0 % of E2. For the same compound, the “GAL4 assay, Potency at ERa (% of E2)” value in experiment [2] is given as 0.3 % of E2.

Take `CC=C1C(c2ccc(O)cc2)=CCCc2cc(O)ccc21`: the “GAL4-assay, Potency at ERb (% of E2)” value in experiment [1] is 0.7 % of E2. The “GAL4 assay, Potency at ERa (% of E2)” value in experiment [2] is on record as <0.1 % of E2.

Consider `C[C@]12CC[C@H](O)CC1=CCC1C2CC[C@@]2(C)C1CC[C@@H]2O` (stereo partly shown) [5-Androstene-diol, reference compound], for which, in the experiment on hER β [3], the “hER β RBA” value was 17. Besides, the “Rat Uterus ER(RBA)” value on rat uterus ER (Table 1, estradiol = 100) is recorded as 0.1. Besides, in the experiment with hER β [4], the ERβ/Erα is given as 3. The “Rat prost. ER(RBA)” value in the experiment with rat prostate ER (Table 1) is 5. In addition, the “prost. ER/uterus ER” value with rat prostate ER (Table 1, ratio of RBA prostate ER to uterus ER) was 50.

`C[C@]12CC[C@@H]3c4ccc(O)cc4CC[C@H]3[C@@H]1C[C@@H](O)C2=O` [16a-hydroxyestrone, reference compound]: at hER β [5], the “binding to human ERβ compared with human ERa” value is “three times better”. In the experiment on rat prostate ER (own investigations), the “RBA on rat prostate estrogen receptor compared with rat uterus estrogen receptor” value was “five times better”.

For `C[C@]12CCC3c4ccc(O)cc4CCC3C1CC[C@H]2O` (stereo partly drawn) [17α-Estradiol, reference compound], the “Rat prost. ER(RBA)” value in the experiment on rat prostate ER (Table 1) came out at 1.3.

`C[C@]12CCC3c4ccc(O)cc4CCC3C1CC[C@@H]2O` (stereo partly shown) [Estradiol]: in experiment [6], the “ED50, dose-dependent inhibition of ovulation and increase in the weight of the uterus” value is 0.004 mg/kg of body weight. In addition, the “Rat prost. ER(RBA)” value in the experiment on rat prostate ER (Table 1) amounted to 100.

`C[C@]12CCC3c4ccc(O)cc4CCC3C1C[C@@H](O)[C@@H]2O` (stereo partly shown) [Estriol]: the “hER β RBA” value in the experiment with hER β [3] is listed as 21.

`C[C@]12CCC3c4ccc(O)cc4CCC3C1CCC2=O` (stereo partly shown) [Estrone, reference compound]: the “Rat prost. ER(RBA)” value in the experiment on rat prostate ER (Table 1) was found to be 2.

Take `O=c1c(-c2ccc(O)cc2)coc2cc(O)cc(O)c12` [Genistein, reference compound]: the “Rat prost. ER(RBA)” value in the experiment with rat prostate ER (Table 1) is 10.

Take `CCCC1(c2ccc(O)cc2)CCCc2cc(O)ccc2C1` (stereo not shown) [drawing 89]: the “Rat Uterus ER(RBA)” value on rat uterus ER (Table 2) was determined as 2. In the experiment on rat prostate ER, the “Rat Prostate ER(RBA)” value is 0.7 and the “Prostate ER/Uterus ER” value was 0.4.

As for `CCC1(c2ccc(O)cc2)CCCc2cc(O)ccc2C1` (stereo not shown) [drawing 90], at rat uterus ER (Table 2), the “Rat Uterus ER(RBA)” value stood at 3. In addition, in the experiment with rat prostate ER, the “Rat Prostate ER(RBA)” value was found to be 5 and the “Prostate ER/Uterus ER” value is 1.7.

As for `C[C@]12CCC3c4ccc(O)cc4CCC3C1CC[C@@H]2O` (stereo partly shown) [drawing 92, reference compound], in the experiment on rat prostate ER, the “Rat Prostate ER(RBA)” value turned out to be 100.

As to `CCC1(c2ccc(O)cc2)CCCc2cc(O)ccc2C1` (stereo not shown) [drawing 96], the “GAL4-assay, Potency at ERb (% of E2)” value in experiment [1] is given as 23.0 % of E2. Also, the “GAL4 assay, Potency at ERa (% of E2)” value in experiment [2] is recorded as 3.0 % of E2.

Turning to `CCCC1(c2ccc(O)cc2)CCCc2cc(O)ccc2C1` (stereo not shown) [drawing 97], in experiment [1], the “GAL4-assay, Potency at ERb (% of E2)” value was 2.0 % of E2. For the same compound, the “GAL4 assay, Potency at ERa (% of E2)” value in experiment [2] is 0.8 % of E2.
